# Experimental data: ChEMBL document CHEMBL1145216, “N-hydroxy-2-(naphthalene-2-ylsulfanyl)-acetamide, a novel hydroxamic acid-based inhibitor of aminopeptidase N and its anti-angiogenic activity” (Bioorg Med Chem Lett, 2005); call rule not given here
# Key:
# [1] = molecular target: T1, Matrix metalloproteinase-9 (Homo sapiens, UniProt P14780); assay: Inhibition of human matrix metalloprotease-9 expressed in Sf9 insect cells
# [2] = molecular target: T2, Matrix metalloproteinase-14 (Homo sapiens, UniProt P50281); assay: Inhibition of human matrix metalloprotease-14 expressed in Escherichia coli
# [3] = molecular target: T1, Matrix metalloproteinase-9; assay: Inhibition of human matrix metalloprotease-9 expressed in Sf9 insect cells; NA:Not active
# Aminopeptidase N [4] = molecular target: T3, Aminopeptidase N (Homo sapiens, UniProt P15144); assay: Binding affinity towards aminopeptidase N
# T3 sequence (P15144 whole entry): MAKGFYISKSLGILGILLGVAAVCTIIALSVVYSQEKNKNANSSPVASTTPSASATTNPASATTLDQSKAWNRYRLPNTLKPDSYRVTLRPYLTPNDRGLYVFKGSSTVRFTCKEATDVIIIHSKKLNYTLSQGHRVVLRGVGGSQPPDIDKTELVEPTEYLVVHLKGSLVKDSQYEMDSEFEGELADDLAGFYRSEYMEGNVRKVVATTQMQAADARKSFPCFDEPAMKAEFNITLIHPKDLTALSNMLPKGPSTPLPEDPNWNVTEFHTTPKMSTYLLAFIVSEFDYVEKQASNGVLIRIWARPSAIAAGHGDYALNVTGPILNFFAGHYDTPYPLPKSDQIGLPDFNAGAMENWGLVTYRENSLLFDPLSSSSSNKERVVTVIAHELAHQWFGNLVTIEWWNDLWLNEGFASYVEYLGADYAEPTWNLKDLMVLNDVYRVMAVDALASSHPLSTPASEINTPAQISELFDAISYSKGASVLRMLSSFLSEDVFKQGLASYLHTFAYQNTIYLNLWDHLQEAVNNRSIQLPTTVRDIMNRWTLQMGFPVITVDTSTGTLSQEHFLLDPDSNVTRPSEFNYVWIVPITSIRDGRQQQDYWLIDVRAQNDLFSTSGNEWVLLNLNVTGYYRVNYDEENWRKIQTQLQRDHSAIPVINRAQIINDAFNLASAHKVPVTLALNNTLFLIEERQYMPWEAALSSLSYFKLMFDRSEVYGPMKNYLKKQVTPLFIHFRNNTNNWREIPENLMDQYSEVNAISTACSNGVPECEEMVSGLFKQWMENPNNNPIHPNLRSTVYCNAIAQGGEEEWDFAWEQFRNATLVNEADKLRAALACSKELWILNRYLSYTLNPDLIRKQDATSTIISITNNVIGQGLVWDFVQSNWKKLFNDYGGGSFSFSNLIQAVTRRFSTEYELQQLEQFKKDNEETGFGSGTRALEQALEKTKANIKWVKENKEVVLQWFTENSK
# Aminopeptidase N [5] = molecular target: T3, Aminopeptidase N; assay: Inhibitory concentration against aminopeptidase N
# [6] = molecular target: T2, Matrix metalloproteinase-14; assay: Inhibitory concentration against matrix metalloprotease-14 in Escherichia coli was determined; NA:Not active
# [7] = molecular target: 72 kDa type IV collagenase (Homo sapiens, UniProt P08253); assay: Inhibition of human matrix metalloprotease-2 expressed in Sf9 insect cells; NA:Not active
# Sequence of 72 kDa type IV collagenase (P08253 whole entry): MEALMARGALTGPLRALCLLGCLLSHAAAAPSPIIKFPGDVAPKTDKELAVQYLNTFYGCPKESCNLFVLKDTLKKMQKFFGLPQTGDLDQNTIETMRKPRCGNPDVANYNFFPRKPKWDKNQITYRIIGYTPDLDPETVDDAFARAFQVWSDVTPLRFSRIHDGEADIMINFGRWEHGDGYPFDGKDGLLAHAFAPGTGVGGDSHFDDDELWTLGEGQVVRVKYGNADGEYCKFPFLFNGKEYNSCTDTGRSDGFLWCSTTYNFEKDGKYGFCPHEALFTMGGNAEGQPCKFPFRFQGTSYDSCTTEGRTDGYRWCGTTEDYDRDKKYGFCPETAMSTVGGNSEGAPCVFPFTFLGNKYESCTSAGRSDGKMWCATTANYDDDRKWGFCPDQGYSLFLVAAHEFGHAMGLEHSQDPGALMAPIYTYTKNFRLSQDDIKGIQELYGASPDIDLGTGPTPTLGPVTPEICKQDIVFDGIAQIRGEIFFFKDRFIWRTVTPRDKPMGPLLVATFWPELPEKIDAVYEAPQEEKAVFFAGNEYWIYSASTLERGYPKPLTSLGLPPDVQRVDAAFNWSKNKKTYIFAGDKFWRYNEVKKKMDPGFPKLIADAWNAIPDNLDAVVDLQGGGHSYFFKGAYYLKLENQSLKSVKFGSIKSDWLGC
# T1 sequence (P14780 whole entry): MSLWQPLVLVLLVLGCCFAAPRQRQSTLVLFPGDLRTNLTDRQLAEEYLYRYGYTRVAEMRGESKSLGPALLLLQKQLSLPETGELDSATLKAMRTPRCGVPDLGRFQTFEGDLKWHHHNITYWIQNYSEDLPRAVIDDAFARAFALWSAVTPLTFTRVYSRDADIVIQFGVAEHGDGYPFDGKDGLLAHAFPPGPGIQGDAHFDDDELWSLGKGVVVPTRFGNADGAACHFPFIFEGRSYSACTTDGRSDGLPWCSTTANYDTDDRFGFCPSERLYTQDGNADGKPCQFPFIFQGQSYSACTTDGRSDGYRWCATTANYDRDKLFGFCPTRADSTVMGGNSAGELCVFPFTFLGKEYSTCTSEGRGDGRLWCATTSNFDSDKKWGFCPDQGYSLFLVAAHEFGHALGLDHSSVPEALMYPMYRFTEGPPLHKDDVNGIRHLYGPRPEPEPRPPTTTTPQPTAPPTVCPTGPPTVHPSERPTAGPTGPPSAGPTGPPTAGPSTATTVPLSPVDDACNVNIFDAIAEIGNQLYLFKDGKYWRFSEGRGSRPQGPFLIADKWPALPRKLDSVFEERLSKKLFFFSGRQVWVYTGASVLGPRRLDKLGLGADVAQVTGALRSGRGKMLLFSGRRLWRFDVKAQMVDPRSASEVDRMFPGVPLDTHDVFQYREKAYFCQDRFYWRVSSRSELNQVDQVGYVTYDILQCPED
IC50 [1],IC50 [2],IC50 [3],Ki (Aminopeptidase N [4]),IC50 (Aminopeptidase N [5]),IC50 [6],IC50 [7],Compound
25 nM,47 nM,,,,,,CNC(=O)[C@H](Cc1ccccc1)NC(=O)[C@H](CC(C)C)[C@H](CSc1cccs1)C(=O)NO [BATIMASTAT]
,,Not Active,3500 nM,3400 nM,Not Active,Not Active,O=C(CSc1ccc2ccccc2c1)NO
